Results reported in ChEMBL document CHEMBL1127155, “Synthesis and antiviral activity of 9-(phosphonoalkylnyloxy)purines: Novel acyclonucleotides” (Bioorg Med Chem Lett, 1993).
Converted amounts (≈) assume the structure as drawn.

What was measured:
MRC5 = experiment: Tested for inhibition of DNA synthesis in MRC-5 cells; assay type: functional, cell-based; conditions: Homo sapiens
Human alphaherpesvirus 1 [1] = experiment: Tested for its effect on replication of herpes simplex type-1 (HSV-1) at the dose up to 100 ug/mL; NE: No effect on replication; assay type: functional, organism-based
Cytomegalovirus [2] = experiment: Tested for its effect on replication of cytomegalovirus (CMV) at the dose up to 100 ug/mL; NE: No effect on replication.; assay type: functional, organism-based
Human alphaherpesvirus 2 [3] = experiment: Tested for the concentration at which compound showed activity against replication of herpes simplex type-2 (HSV-2); assay type: functional, organism-based
Human alphaherpesvirus 1 [4] = experiment: Tested for concentration at which cytotoxicity was observed in herpes simplex type-1 (HSV-1); assay type: functional
Human alphaherpesvirus 1 [5] = experiment: Tested for the concentration at which compound showed activity against its effect on replication of herpes simplex type-1 (HSV-1); assay type: functional, organism-based
Cytomegalovirus [6] = experiment: Tested for the concentration at which compound showed activity against its effect on replication of Cytomegalovirus; assay type: functional, organism-based; conditions: Human betaherpesvirus 5
Human alphaherpesvirus 3 = experiment: Tested for the concentration at which compound showed activity against its effect on replication of varicella zoster virus; assay type: functional, organism-based
Human alphaherpesvirus 2 [7] = experiment: Tested for the concentration at which compound showed activity against its effect on replication of herpes simplex type-2 (HSV-2); assay type: functional, organism-based
Cytomegalovirus [8] = experiment: Tested for its effect on replication of cytomegalovirus (CMV) at the dose up to 100 ug/mL; NE: No effect on replication; assay type: functional, organism-based

## Nc1ncnc2c1ncn2OCC#CP(=O)(O)O
MRC5
  IC50: 98 µg/mL (≈ 364 µM)
Human alphaherpesvirus 1 [1]
  Activity: No effect
Cytomegalovirus [2]
  Activity: No effect
Human alphaherpesvirus 2 [3]
  IC50: 14 µg/mL (≈ 52 µM)

## Nc1nc(O)c2ncn(OCC#CP(=O)(O)O)c2n1
MRC5
  IC50: 4.2 µg/mL (≈ 14.7 µM)
Human alphaherpesvirus 1 [4]
  Dose: 30 µg/mL
Human alphaherpesvirus 1 [5]
  IC50: 6.5 µg/mL (≈ 22.8 µM)
Cytomegalovirus [6]
  IC50: 3.8 µg/mL (≈ 13.3 µM)
Human alphaherpesvirus 3
  IC50: 3.2 µg/mL (≈ 11.2 µM)
Human alphaherpesvirus 2 [7]
  IC50: 3.9 µg/mL (≈ 13.7 µM)

## Nc1nc(O)c2ncn(OCC/C(=C/Cl)P(=O)(O)O)c2n1
Cytomegalovirus [8]
  Activity: No effect
MRC5
  IC50: 17 µg/mL (≈ 50.6 µM)
Human alphaherpesvirus 1 [1]
  Activity: No effect
Human alphaherpesvirus 2 [3]
  IC50: 25 µg/mL (≈ 74.5 µM)
